The test system of the assay is mouse BM-MSC cultures. The assay can be described thus: Osteogenic and adipogenic differentiation of mouse BM-MSC. The assay is classed as cell-based. How it is done: During the process of culture, expansion, or maintenance of MSCs, it is imperative that these cells maintain their functional properties so they can be used for specific downstream applications, including characterization by differentiation. […] BM-MSCs that were initially exposed to vehicle- or GW2580-containing media were plated at 3 different densities (FIG. 18A) in MesenCult Proliferation Medium and allowed to adhere to the plates overnight. Cultures were then differentiated for 14 days in MesenCult Osteogenic Medium, and the medium changed every 3 days. Osteogenic cultures were then fixed and stained for alkaline phosphates (ALP) activity (red areas) and mineralization (black areas). In control cultures ([…]), a modest differentiation into the osteogenic lineage was only observed when cultures were seeded at the highest density of 1.2×10^5 cells/cm^2. […] Cultures were then differentiated for 14 days into the adipogenic and osteogenic lineages (FIG. 18B).

Molecules are shown by their SMILES.

Regarding `COc1ccc(COc2ccc(Cc3cnc(N)nc3N)cc2OC)cc1` [GW2580, 5-(3-Methoxy-4-((4-methoxybenzyl)oxy)benzyl)pyrimidine-2,4-diamine], under “BM-MSC, 1 uM for 2 passages, seeded at 4.0×10^4 cells/cm^2, 14 days”, the “osteogenic differentiation (ALP activity, mineralization)” value was “a significant and robust increase in osteogenic differentiation”. In addition, the “adipogenic and osteogenic differentiation (Oil Red O, ALP/mineralization)” value (BM-MSC, 2.5 uM for 2 passages, plated at 4.0×10^4 cells/cm^2, 14 days) was “substantial adipogenic and osteogenic differentiation”. Further, the “differentiation into osteogenic and adipogenic lineages vs control cultures” value (mouse BM-MSC exposed to GW2580 during expansion) was “stronger and more robust differentiation”.

The values are drawn from patent US10017741B2, “Compositions and methods for obtaining enriched mesenchymal stem cell cultures” (StemCell Technologies Inc., priority 2013, dated 2018).
